The subject of series [1] is Influenza A virus. Nature of the series: Antiviral activity against Influenza A virus A/WSN/33(H1N1) infected in MDCK cells assessed as reduction in virus induced cytopathic effect measured 48 hrs post infection by MTT assay. The format is functional, organism-based.
Series [2] is described as follows: Cytotoxicity against MDCK cells assessed as reduction in cell viability incubated for 48 hrs by MTT assay. The format is toxicity, cell-based, Canis lupus familiaris. Conditions: dog.
In series [3] the target is Polymerase acidic protein (Influenza A virus (A/Puerto Rico/8/1934(H1N1)), UniProt P03433). The series can be described thus: Inhibition of Influenza A virus N-terminal domain of PA endonuclease using 6FAM-TGGCAATATCAGCTCCACA-MGBNFQ as fluorescent substrate by FRET analysis.
Series [4] can be described thus: Selectivity index, ratio of CC50 for cytotoxicity against MDCK cells to EC50 for antiviral activity against Influenza A virus A/WSN/33(H1N1) infected in MDCK cells. The format is toxicity, cell-based. Particulars: dog, read-out: Ratio CC50/EC50.
The subject of series [5] is Influenza A virus. Nature of the series: Antiviral activity against Influenza A virus A/WSN/33(H1N1) infected in MDCK cells assessed as inhibition of virus replication and translation by measuring reduction in nucleoprotein […] expression at 20 uM measured after 2 to 8 hrs by Western blot based time-of-addition assay. Format: functional, organism-based. Conditions: time 2-8 hrs. (In general: A western blot detects proteins with antibodies after separation by electrophoresis.)

The subject of series [6] is Influenza A virus. Nature of the series: Antiviral activity against Influenza A virus A/WSN/33(H1N1) infected in MDCK cells assessed as distribution of PAN protein expression in nucleus and cytoplasm measured 24 hrs post infection by DAPI staining based microscopic analysis. Format: functional, organism-based.
Series [7] concerns Influenza A virus. Nature of the series: Antiviral activity against Influenza A virus A/WSN/33(H1N1) infected in MDCK cells assessed as reduction in nucleoprotein […] expression at 20 uM measured after 0 to 10 hrs by Western blot based time-of-addition assay. Format: functional, organism-based. Particulars: time 0-10 hrs.
Series [8] has as its system Influenza A virus. Nature of the series: Antiviral activity against Influenza A virus A/WSN/33(H1N1) infected in human A549 cells assessed as reduction in nucleoprotein expression at 5 to 20 uM measured 24 hrs post infection by Western blot analysis. The format is functional, organism-based. Conditions: dose 5-20 µM.
The test system of series [9] is Influenza A virus. The series can be described thus: Antiviral activity against Influenza A virus A/WSN/33(H1N1) infected in human A549 cells assessed as reduction in nucleoprotein mRNA expression at 5 to 20 uM measured 24 hrs post infection by qRT-PCR analysis. Format: functional, organism-based. Conditions: dose 5-20 µM. For orientation: In qPCR the cycle at which signal appears reflects the starting amount.

Active and inactive are the calls of the source. No cut-off for these calls is given here. Bounds are passed on as bounds.

Consider `COC(=O)[C@@H]1Cc2cc(O)c(O)cc2[C@H](Cc2ccc(O)c(O)c2)N1C(=O)CNC(C)=O`, for which, in the series with Influenza A virus [1], the EC50 was above 20 µM.
For `O=CN1[C@H](C(=O)Oc2ccccc2F)Cc2cc(O)c(O)cc2[C@@H]1Cc1ccc(O)c(O)c1`, the CC50 at 48 h in series [2] was 61.2 µM. The compound also gave an IC50 in series [3] of 0.37 µM. Further, in [4], the selectivity ratio was found to be 11.7. Also, the EC50 with Influenza A virus [1] is 5.23 µM.
In the same order, the values of `COC(=O)[C@@H]1Cc2cc(O)c(O)cc2[C@H](Cc2ccc(O)c(O)c2)N1C(=O)C(F)(F)F` are 76.4 µM, 0.5 µM, 11.3 and 6.76 µM.
Take `CCC(=O)N1[C@H](C(=O)OC)Cc2cc(O)c(O)cc2[C@@H]1Cc1ccc(O)c(O)c1`: the CC50 at 48 h in [2] was above 100 µM. In addition, in the series with Influenza A virus [1], the EC50 is above 10 µM.
For `O=CN1[C@H](C(=O)NCc2ccccc2)Cc2cc(O)c(O)cc2[C@@H]1Cc1ccc(O)c(O)c1` the same measures were above 100 µM and above 10 µM.
In the same order, the values of `CCCC(=O)N1[C@H](C(=O)OC)Cc2cc(O)c(O)cc2[C@@H]1Cc1ccc(O)c(O)c1` are above 100 µM and above 10 µM.
Consider `COC(=O)[C@@H]1Cc2cc(O)c(O)cc2[C@H](Cc2ccc(O)c(O)c2)N1C(=O)CCl`, for which the 50% cytotoxic concentration (CC50) at 48 h in series [2] is 34.5 µM. Besides, in series [4], the selectivity ratio was determined as 5.3. The EC50 in the series on Influenza A virus [1] is 6.49 µM.
For `O=CN1[C@H](C(=O)Oc2cccc(Cl)c2)Cc2cc(O)c(O)cc2[C@@H]1Cc1ccc(O)c(O)c1` the same measures were 84.3 µM, 13.8 and 6.09 µM.
As to `O=CN1[C@H](C(=O)Oc2c(Cl)cccc2Cl)Cc2cc(O)c(O)cc2[C@@H]1Cc1ccc(O)c(O)c1`, the CC50 at 48 h in [2] worked out at 24.8 µM. Besides, the selectivity ratio in [4] stood at 9.6. Also, in the series on Influenza A virus [1], the EC50 came out at 2.57 µM.
Take `O=CN1[C@H](C(=O)NCc2ccco2)Cc2cc(O)c(O)cc2[C@@H]1Cc1ccc(O)c(O)c1`: the CC50 at 48 h in [2] is above 100 µM. For the same compound, the EC50 with Influenza A virus [1] is above 10 µM.
As to `CCOC(=O)[C@@H]1Cc2cc(O)c(O)cc2[C@H](Cc2ccc(O)c(O)c2)N1C=O`, the CC50 at 48 h in series [2] is above 100 µM. Moreover, in series [4], the selectivity ratio was above 14.5. Moreover, the EC50 with Influenza A virus [1] is 6.88 µM.
As for `O=CN1[C@H](C(=O)NCc2cccs2)Cc2cc(O)c(O)cc2[C@@H]1Cc1ccc(O)c(O)c1`, the CC50 at 48 h in series [2] was above 100 µM. Moreover, the EC50 in the series with Influenza A virus [1] was above 10 µM.
In the case of `O=CN1[C@H](C(=O)Oc2ccc(Cl)cc2Cl)Cc2cc(O)c(O)cc2[C@@H]1Cc1ccc(O)c(O)c1`, the cytotoxic concentration (CC50) at 48 h in [2] amounted to 21.4 µM. Also, the selectivity ratio in series [4] amounted to 5.7. Moreover, in the series with Influenza A virus [1], the EC50 came to 3.76 µM.
Consider `COC(=O)[C@@H]1Cc2cc(O)c(O)cc2[C@H](Cc2ccc(O)c(O)c2)N1C(C)=O`, for which the CC50 at 48 h in series [2] was above 100 µM. Besides, inhibition in series [3] was half-maximal at 0.53 µM (IC50). Besides, the selectivity ratio in [4] was above 13.1. Moreover, the EC50 in the series with Influenza A virus [1] was 7.65 µM.
In the case of `CN1CCc2cc(O)c(O)cc2C1Cc1ccc(O)c(O)c1` (racemic), the CC50 at 48 h in series [2] was above 100 µM. The same compound registered an IC50 in series [3] of 1.88 µM. Besides, the EC50 with Influenza A virus [1] was above 20 µM.
With `O=CN1[C@H](C(=O)O)Cc2cc(O)c(O)cc2[C@@H]1Cc1ccc(O)c(O)c1`, in series [2], the CC50 at 48 h is above 100 µM. Besides, the concentration for a half-maximal effect (EC50) with Influenza A virus [1] was above 20 µM.
With `COc1ccc(NC(=O)[C@@H]2Cc3cc(O)c(O)cc3[C@H](Cc3ccc(O)c(O)c3)N2C=O)cc1`, the CC50 at 48 h in series [2] stood at 50.9 µM. The selectivity ratio in series [4] was found to be 8.3. For the same compound, the EC50 with Influenza A virus [1] turned out to be 6.12 µM.
For `CN(Cc1ccccc1)C(=O)[C@@H]1Cc2cc(O)c(O)cc2[C@H](Cc2ccc(O)c(O)c2)N1C=O` the same measures were 91.9 µM, 10.6 and 8.68 µM.
Consider `COc1ccc(CNC(=O)[C@@H]2Cc3cc(O)c(O)cc3[C@H](Cc3ccc(O)c(O)c3)N2C=O)cc1`, for which the CC50 at 48 h in [2] is above 100 µM. In addition, the EC50 in the series with Influenza A virus [1] was above 10 µM.
Take `O=CN1[C@H](C(=O)Oc2ccccc2)Cc2cc(O)c(O)cc2[C@@H]1Cc1ccc(O)c(O)c1`: the CC50 at 48 h in series [2] was 77.7 µM. Moreover, in [3], the IC50 is 0.45 µM. For the same compound, in series [4], the selectivity ratio turned out to be 10.2. In addition, in the series with Influenza A virus [1], the half-maximal effective concentration (EC50) stood at 7.6 µM.
Turning to `CCN(CC)C(=O)[C@@H]1Cc2cc(O)c(O)cc2[C@H](Cc2ccc(O)c(O)c2)N1C=O`, the CC50 at 48 h in series [2] was above 100 µM. Besides, the concentration for a half-maximal effect (EC50) in the series on Influenza A virus [1] was above 10 µM.
The compound `O=C(O[C@@H]1Cc2c(O)cc(O)cc2O[C@@H]1c1cc(O)c(O)c(O)c1)c1cc(O)c(O)c(O)c1` [EPIGALOCATECHIN GALLATE] came in with an IC50 in [3] of 5.86 µM. This lies in the single-digit micromolar range.
As for `O=CN1[C@H](C(=O)Oc2cccc(F)c2)Cc2cc(O)c(O)cc2[C@@H]1Cc1ccc(O)c(O)c1`, the CC50 at 48 h in [2] amounted to 55.6 µM. Moreover, the selectivity ratio in series [4] stood at 11.8. In addition, the EC50 in the series on Influenza A virus [1] was found to be 4.72 µM.
In the same order, the values of `O=CN1[C@H](C(=O)Oc2ccc(Br)cc2)Cc2cc(O)c(O)cc2[C@@H]1Cc1ccc(O)c(O)c1` are 32.1 µM, 9.8 and 3.23 µM.
In the same order, the values of `CCCOC(=O)[C@@H]1Cc2cc(O)c(O)cc2[C@H](Cc2ccc(O)c(O)c2)N1C=O` are 75.1 µM, 9.7 and 7.72 µM.
Take `CCC(CC)[C@H](NC(C)=O)[C@@H]1[C@H](O)[C@@H](C(=O)O)C[C@H]1NC(=N)N` [PERAMIVIR ANHYDROUS]: the CC50 at 48 h in [2] is above 100 µM. Also, in series [4], the selectivity ratio is above 19.
Take `O=CN1[C@H](C(=O)Nc2ccc(Cl)cc2)Cc2cc(O)c(O)cc2[C@@H]1Cc1ccc(O)c(O)c1`: the CC50 at 48 h in [2] is above 100 µM. Also, the selectivity ratio in series [4] is above 12.7. Also, the concentration giving a half-maximal response (EC50) in the series on Influenza A virus [1] was 7.89 µM.
For `CN(C)C(=O)[C@@H]1Cc2cc(O)c(O)cc2[C@H](Cc2ccc(O)c(O)c2)N1C=O`, the CC50 at 48 h in series [2] is above 100 µM. Besides, the EC50 in the series on Influenza A virus [1] was above 10 µM.
With `O=CN1[C@H](C(=O)Oc2ccccc2Br)Cc2cc(O)c(O)cc2[C@@H]1Cc1ccc(O)c(O)c1`, in series [2], the CC50 at 48 h came to 57.1 µM. For the same compound, in [3], the IC50 turned out to be 0.26 µM. The selectivity ratio in series [4] was 17.8. Further, the EC50 in the series with Influenza A virus [1] worked out at 3.21 µM.
Consider `O=CN1[C@H](C(=O)Oc2ccccc2Cl)Cc2cc(O)c(O)cc2[C@@H]1Cc1ccc(O)c(O)c1`, for which the result in the series on Influenza A virus [5], in the series on Influenza A virus [6], with Influenza A virus [7], in the series on Influenza A virus [8] and in the series with Influenza A virus [9] was Active. In addition, in series [2], the CC50 at 48 h was above 100 µM. The same compound yielded an IC50 in [3] of 0.28 µM. In addition, the selectivity ratio in series [4] is above 22.2. Besides, the EC50 with Influenza A virus [1] was determined as 4.5 µM.
On to `COC(=O)[C@@H]1Cc2cc(O)c(O)cc2[C@H](Cc2ccc(O)c(O)c2)N1C=O`, for which the CC50 at 48 h in series [2] is above 100 µM. The IC50 in series [3] came to 0.68 µM. Also, the selectivity ratio in series [4] was above 14.2. Besides, the EC50 with Influenza A virus [1] is 7.04 µM.
With `O=CN1[C@H](C(=O)Oc2ccc(Cl)cc2)Cc2cc(O)c(O)cc2[C@@H]1Cc1ccc(O)c(O)c1`, the CC50 at 48 h in series [2] was found to be 57.6 µM. Moreover, the selectivity ratio in series [4] turned out to be 15. In addition, the EC50 in the series on Influenza A virus [1] worked out at 3.86 µM.
Take `O=CN1[C@H](C(=O)Nc2ccccc2)Cc2cc(O)c(O)cc2[C@@H]1Cc1ccc(O)c(O)c1`: the CC50 at 48 h in series [2] is above 100 µM. Also, the EC50 in the series with Influenza A virus [1] was above 10 µM.

By EC50 is commonly meant the concentration giving half of the maximal effect. One may read the CC50 as the concentration at which the toxic effect on the cells reaches its halfway point. The term IC50 denotes the concentration needed to halve the response being measured. The low end stands for greater potency in that assay, the high end for weaker potency in that assay.

The values are drawn from ChEMBL document CHEMBL5143520, “Discovery and optimization of new 6, 7-dihydroxy-1, 2, 3, 4-tetrahydroisoquinoline derivatives as potent influenza virus PAN inhibitors” (Eur J Med Chem, 2022).
